According to ChEMBL document CHEMBL3739409, “Bioactive ent-Pimarane and ent-Abietane Diterpenoids from the Whole Plants of Chloranthus henryi” (J Nat Prod, 2015):
In brackets after ≈: the same amount, converted by molar mass.

Legend:
[1] = test system: Candida albicans; experiment: Antifungal activity against Candida albicans SC5314 assessed as inhibition of yeast to hyphae conversion after 4 hrs by microscopic analysis; format: functional, organism-based; settings: SC5314, 4 h
[2] = test system: Candida albicans; experiment: Antifungal activity against Candida albicans SC5314 by broth microdilution method; format: functional

SMILES | IC50 [1] [µM] | MIC50 [2] [µM]
C=C[C@]1(C)C=C2[C@@H](CC1)[C@]1(C)CC[C@@H](O)C(C)(C)[C@H]1C[C@@H]2O | 399 | –
OC(Cn1cncn1)(Cn1cncn1)c1ccc(F)cc1F [FLUCONAZOLE] | – | 1.6 (≈ 0.49 µg/mL)
C=CCc1ccc(O)c(-c2cc(CC=C)ccc2O)c1 [MAGNOLOL] | 7.5 | –
CO[C@@]1(C(C)C)C=C2C(=O)C[C@@H]3C(C)(C)[C@H](O)CC[C@@]3(C)[C@@H]2C[C@H]1O | 334 | 731 (≈ 256 µg/mL)
CC(C)c1ccc2c(c1)C(=O)CC1C(C)(C)[C@@H](O)CC[C@]21C (stereo partly drawn) | 97.3 | 427 (≈ 128 µg/mL)
CC(C)c1ccc2c(c1)[C@H](O)CC1C(C)(C)[C@@H](O)CC[C@]21C (stereo partly drawn) | 739 | –
